Results on 22 compounds are retold here after patent US20260231590A1, “AROMATIC COMPOUND, ORGANIC SEMICONDUCTOR LAYER AND ORGANIC THIN FILM TRANSISTOR” (TOSOH CORPORATION, priority 2023, published 2026).

Common to all, as to type: physicochemical
A short description of data set [1]: Evaluation of solubility in organic solvents. The note with it: room temperature (25° C.), complete dissolution by visual observation. The procedure: Toluene and n-octane were each added to predetermined amounts of the aromatic compounds obtained in Examples 1, 4, 5, 6, 7, 8, 9, 12, 13, 14, 15, 18, 19, 20, 22 and 23 to give compositions for film formation. The weight of each organic solvent required to completely dissolve the aromatic compound at room temperature (25° C.) was measured, and solubility (% by weight) was calculated. The determination of the point of complete dissolution was confirmed by visual observation.

Data set [2] in a line: Solution for forming an organic semiconductor layer: dissolved in toluene at 50° C., state after cooling to 25° C. To be noted: 0.20% by weight in toluene, dissolved at 50° C., after 10 hours at 25° C. The protocol: In air, 1.74 mg of the 2,8-di(2-cyclohexylethyl)anthra[1,2-b:5,6-b′]dithiophene synthesized in Example 2 (compound 2) and 868 mg of toluene (FUJIFILM Wako Pure Chemical Industries Corporation, pure grade) were added to a 10-ml sample tube. After dissolution by heating to 50° C., the solution was allowed to cool at room temperature (25° C.), whereby a solution for forming an organic semiconductor layer was prepared. […] (the concentration of compound 2 was 0.20% by weight), confirming that compound 2 is a compound suitable for film formation by drop casting and inkjet printing.

Experiment in data set [3]: as above
To be noted: 0.44 mg in 434 mg of toluene, heated to 50° C., allowed to cool at room temperature (25° C.).

With `c1cc2ccc3cc4c(ccc5cc(CCC6CCCC6)sc54)cc3c2s1` [Compound 9, 2-(2-Cyclopentylethyl) anthra[1,2-b:5,6-b′]dithiophene], in data set [1], the “Solubility [% by weight] n-octane” value was no less than 1.0 % by weight and the “Solubility [% by weight] Toluene” value is given as no less than 1.0 % by weight.

On to `CCCCCCc1cc2ccc3cc4c(ccc5cc(CCC6CCCC6)sc54)cc3c2s1` [Compound 13, 2-(2-Cyclopentylethyl)-8-hexylanthra[1,2-b:5,6-b′]dithiophene], for which, in data set [1], the “Solubility [% by weight] n-octane” value is reported as no less than 0.5 % by weight and the “Solubility [% by weight] Toluene” value is no less than 1.0 % by weight. In addition, the “state of solution for forming an organic semiconductor layer” value (shortened to “state of solution”) in data set [2] is on record as “remained in solution form”.

Regarding `CCCCc1cc2ccc3cc4c(ccc5cc(CCC6CCCCC6)sc54)cc3c2s1` [Compound 6, 2-Butyl-8-(2-cyclohexylethyl)anthra[1,2-b:5,6-b′]dithiophene], in data set [1], the “Solubility [% by weight] n-octane” value is listed as no less than 0.5 % by weight and the “Solubility [% by weight] Toluene” value was no less than 1.0 % by weight.

On to `CCCCCCc1cc2ccc3cc4c(ccc5cc(CCCC6CCCCC6)sc54)cc3c2s1` [Compound 18, 2-(3-Cyclohexylpropyl)-8-hexylanthra[1,2-b:5,6-b′]dithiophene], for which, in data set [1], the “Solubility [% by weight] n-octane” value is recorded as no less than 0.2 % by weight and the “Solubility [% by weight] Toluene” value is on record as no less than 1.0 % by weight. In data set [2], the “state of solution” value was “remained in solution form”.

For the compound `CCCCCCc1cc2ccc3cc4c(ccc5cc(CCC6CCCCC6)sc54)cc3c2s1` [Compound 8, 2-(2-Cyclohexylethyl)-8-hexylanthra[1,2-b:5,6-b′]dithiophene], in data set [1], the “Solubility [% by weight] n-octane” value is reported as no less than 0.5 % by weight and the “Solubility [% by weight] Toluene” value is reported as no less than 1.0 % by weight. Besides, the “state of solution” value in data set [2] is given as “remained in solution form”.

In the case of `CCCCCc1cc2ccc3cc4c(ccc5cc(CCCC6CCCCC6)sc54)cc3c2s1` [Compound 25, 2-(3-Cyclohexylpropyl)-8-pentylanthra[1,2-b:5,6-b′]dithiophene], the “state of solution” value in data set [2] is listed as “remained in solution form”.

On to `CCCc1cc2ccc3cc4c(ccc5cc(CCC6CCCCC6)sc54)cc3c2s1` [Compound 4, 2-(2-Cyclohexylethyl)-8-propylanthra[1,2-b:5,6-b′]dithiophene], for which, in data set [1], the “Solubility [% by weight] n-octane” value is reported as no less than 0.5 % by weight and the “Solubility [% by weight] Toluene” value is no less than 1.0 % by weight.

Turning to `c1ccc(-c2ccc3c(c2)sc2c4ccc(-c5ccccc5)cc4sc32)cc1` [2,7-diphenyl[1]benzothieno[3,2-b][1]benzothiophene], the “state of solution” value in data set [3] is recorded as “solid precipitation observed”.

In the case of `CCCCCCCCc1ccc(CCc2cc3ccc4cc5c(ccc6cc(CCC7CCCCC7)sc65)cc4c3s2)cc1` [Compound 40, 2-(2-Cyclohexylethyl)-8-(4-octylphenylethyl)anthra[1,2-b:5,6-b′]dithiophene], the “state of solution” value in data set [2] is reported as “remained in solution form”.

For `c1cc2cc(CCC3CCCCC3)sc2c2c1-c1c-2ccc2cc(CCC3CCCCC3)sc12` [Compound 20, 2,7-Bis(2-cyclohexylethyl)biphenyleno[1,2-b:5,6-b′]dithiophene], in data set [1], the “Solubility [% by weight] n-octane” value was no less than 0.5 % by weight and the “Solubility [% by weight] Toluene” value was no less than 1.0 % by weight. Also, the “state of solution” value in data set [2] is “remained in solution form”.

Turning to `c1cc2cc(CCC3CCCC3)sc2c2cc3ccc4cc(CCC5CCCC5)sc4c3cc12` [Compound 10, 2,8-Di(2-cyclopentylethyl)anthra[1,2-b:5,6-b′]dithiophene], the “state of solution” value in data set [2] is given as “remained in solution form”.

For the compound `c1cc2cc(CCC3CCCC3)sc2c2c1-c1c-2ccc2cc(CCC3CCCC3)sc12` [Compound 23, 2,7-Bis(2-cyclopentylethyl)biphenyleno[1,2-b:5,6-b′]dithiophene], in data set [1], the “Solubility [% by weight] n-octane” value is recorded as no less than 0.2 % by weight and the “Solubility [% by weight] Toluene” value is reported as no less than 1.0 % by weight.

`CC(C)Cc1cc2ccc3cc4c(ccc5cc(CCC6CCCC6)sc54)cc3c2s1` [Compound 12, 2-(2-Cyclopentylethyl)-8-isobutylanthra[1,2-b:5,6-b′]dithiophene]: in data set [1], the “Solubility [% by weight] n-octane” value was no less than 0.5 % by weight and the “Solubility [% by weight] Toluene” value was no less than 1.0 % by weight. Besides, in data set [2], the “state of solution” value was “remained in solution form”.

With `CCCCCCCCc1cc2ccc3cc4c(ccc5cc(CCCCCCCC)sc54)cc3c2s1` [2,8-dioctylanthra[1,2-b:5,6-b′]dithiophene, reference compound], in data set [2], the “state of solution” value was “remained in solution form”.

Take `c1cc2ccc3cc4c(ccc5cc(CCCC6CCCCC6)sc54)cc3c2s1` [Compound 15, 2-(3-Cyclohexylpropyl)anthra[1,2-b:5,6-b′]dithiophene]: in data set [1], the “Solubility [% by weight] n-octane” value was no less than 0.5 % by weight and the “Solubility [% by weight] Toluene” value is listed as no less than 1.0 % by weight.

With `c1cc2ccc3cc4c(ccc5cc(CCC6CCCCC6)sc54)cc3c2s1` [Compound 1, 2-(2-Cyclohexylethyl)anthra[1,2-b:5,6-b′]dithiophene], in data set [1], the “Solubility [% by weight] n-octane” value was no less than 0.1 % by weight and the “Solubility [% by weight] Toluene” value is reported as no less than 1.0 % by weight.

With `c1cc2cc(CCC3CCCCC3)sc2c2cc3ccc4cc(CCC5CCCC5)sc4c3cc12` [Compound 14, 2-(2-Cyclohexylethyl)-8-(2-cyclopentylethyl)anthra[1,2-b:5,6-b′]dithiophene], in data set [1], the “Solubility [% by weight] n-octane” value was no less than 1.0 % by weight and the “Solubility [% by weight] Toluene” value was no less than 1.0 % by weight. In data set [2], the “state of solution” value was “remained in solution form”.

In the case of `CCCCCc1cc2ccc3cc4c(ccc5cc(CCC6CCCCC6)sc54)cc3c2s1` [Compound 7, 2-(2-Cyclohexylethyl)-8-pentylanthra[1,2-b:5,6-b′]dithiophene], in data set [1], the “Solubility [% by weight] n-octane” value is given as no less than 0.2 % by weight and the “Solubility [% by weight] Toluene” value was no less than 1.0 % by weight.

As for `CC(C)Cc1cc2ccc3cc4c(ccc5cc(CCC6CCCCC6)sc54)cc3c2s1` [Compound 5, 2-(2-Cyclohexylethyl)-8-isobutylanthra[1,2-b:5,6-b′]dithiophene], in data set [1], the “Solubility [% by weight] n-octane” value is given as no less than 0.2 % by weight and the “Solubility [% by weight] Toluene” value is on record as no less than 1.0 % by weight.

`c1cc2ccc3c(c2s1)-c1ccc2cc(CCC4CCCCC4)sc2c1-3` [Compound 19, 2-(2-Cyclohexylethyl) biphenyleno[1,2-b:5,6-b′]dithiophene]: in data set [1], the “Solubility [% by weight] n-octane” value is reported as no less than 0.5 % by weight and the “Solubility [% by weight] Toluene” value is recorded as no less than 1.0 % by weight.

As for `c1cc2cc(CCC3CCCCC3)sc2c2cc3ccc4cc(CCC5CCCCC5)sc4c3cc12` [Compound 2, 2,8-Di(2-cyclohexylethyl)anthra[1,2-b:5,6-b′]dithiophene], in data set [2], the “state of solution” value was “remained in solution form”.

As to `CCCCCCc1cc2ccc3cc4c(ccc5cc(CCCC6CCCC6)sc54)cc3c2s1` [Compound 31, 2-(3-Cyclopentylpropyl)-8-hexylanthra[1,2-b:5,6-b′]dithiophene], the “state of solution” value in data set [2] is given as “remained in solution form”.
